Test results published in patent publication US8518978B2, “Pharmaceutical composition for prevention and treatment of restenosis comprising isoxazole derivatives” (SK Biopharmaceuticals Co., Ltd., priority 2007, dated 2013).

Key:
[1] = system: HUVEC (human umbrical vein endothelial cell); test: Test of endothelial cell proliferation (cell count); format: cell-based; conditions: for endothelial cell proliferation: drug alone, increasing concentration, two days, cell count (FIGS. 5, 8 to 10)
Description: An HUVEC (human umbrical vein endothelial cell, Cambrex, US) cell line at 3-10 passages was incubated in an EGM2 (endothelial growth medium, Cambrex, US) culture medium under a standard culture condition (O2 95%, 5% CO2, 37° C., 100% RH). 1×10^4 Cells was divided into a 24-well plate, and cultured for a day so that the cells can be fixed into the 24-well plate. In order to allow the cells to enter interphase, the cells were washed three times with PBS, and the EGM2 culture medium was replaced by EBM2 (endothelial basal medium, Cambrex) including 1% fetal bovine serum and 1% antibiotic-antimycotic (Gibco, US), and the cells were incubated for a day. After the used medium was removed, an EBM2 including 1% fetal bovine serum and 1% antibiotic-antimycotic (Gibco) solution supplemented with a drug was added to the cells, and the cell solution was then cultured for two days. After the cell culture, morphology of the cells was observed under a microscope. Then, the cells were detached from the plate using trypsin, and counted using a hemacytometer. 0.1% DMSO dissolved in saline was used as the vehicle control.

pig coronary stent model [2] = test: Re-endothelization in pig coronary stent model (vWF staining); format: in vivo
Description: All pigs receiving a surgical operation were treated with an antithrombotic agent ‘clopidogrel’ (35 mg/day) and aspirin (100 mg/day) before one week of the surgical operation. Pigs weighed 30 to 40 kg were anesthetized with ketamine (20 mg/kg IM) and xylazine (2 mg/kg IM), and their aesthesia was maintained by connecting an infusion set to their ear veins and allowing a ketamine/xylazine solution (ketamin 50 g+xylazine 10 g/500 ml saline) to flow in the ear veins according to the aesthesia state. Pig surgery regions were shaved, sterilized with betadine. Skin on the neck was cut by approximately 5 cm, and a pig carotid artery was found using a mosquito, and 1 ml of heparin (5,000 IU) was administered to pigs. Angiocardiography was performed using a SIREMOBIL 245B angiocardiographer (commercially available from Siemens). A stent (diameter: 3.0 mm; length: 15 mm) was used for surgical operation on LAD, RAD and RCX by expanding the stent at a ratio 1.3:1 of stent:vein diameter, and a position of stent transplantation was previously determined using the imaging system. […]
In order to observe a re-endothelization level by a drug, a tissue section slide of pig blood vessel was reacted at 4° C. with vWF (von willebrand factor, DakoCytomation, US) Ab that stains endothelial cells of mice. […] The tissue section slide was observed and photographed under a fluorescence microscope.

pig coronary stent model [3] = test: Restenosis inhibition in pig coronary stent model; format: in vivo
Description: All pigs receiving a surgical operation were treated with an antithrombotic agent ‘clopidogrel’ (35 mg/day) and aspirin (100 mg/day) before one week of the surgical operation. Pigs weighed 30 to 40 kg were anesthetized with ketamine (20 mg/kg IM) and xylazine (2 mg/kg IM), and their aesthesia was maintained by connecting an infusion set to their ear veins and allowing a ketamine/xylazine solution (ketamin 50 g+xylazine 10 g/500 ml saline) to flow in the ear veins according to the aesthesia state. Pig surgery regions were shaved, sterilized with betadine. Skin on the neck was cut by approximately 5 cm, and a pig carotid artery was found using a mosquito, and 1 ml of heparin (5,000 IU) was administered to pigs. Angiocardiography was performed using a SIREMOBIL 245B angiocardiographer (commercially available from Siemens). A stent (diameter: 3.0 mm; length: 15 mm) was used for surgical operation on LAD, RAD and RCX by expanding the stent at a ratio 1.3:1 of stent:vein diameter, and a position of stent transplantation was previously determined using the imaging system.
After 28 days, pigs were intravenously injected with KCl (40 meq/l) under a conventional aesthesia condition to induce pig cardioplegia, and hearts were extracted pigs. […]

[4] = system: SMC (rat aortic smooth muscle cell); test: Test of vascular smooth muscle cell proliferation (cell count); format: cell-based
Description: An SMC (rat aortic smooth muscle cell) cell line at 3-10 passages was incubated in a culture medium of SmGM (Smooth muscle cell growth medium, Cambrex) including 5% fetal bovine serum and 1% antibiotic antimycotic reagent (Gibco, US) under a standard culture condition ([…], 5% CO2, 37° C., 100% RH). 2×10^4 Cells were divided into a 24-well plate, and cultured for a day so that the cells can be fixed into the 24-well plate. The cells were washed three times with PBS, put into a solution of SmGM including 5% fetal bovine serum and 1% antibiotic-antimycotic (Gibco), and then incubated for a day. After the used medium was removed, an SmGM including 5% fetal bovine serum solution supplemented with a corresponding drug was added to the cells, and the cell solution was then cultured for two days. After the cell culture, morphology of the cells was observed under a microscope. Then, the cells were detached from the plate using trypsin, and counted using a hemacytometer. 0.1% DMSO dissolved in saline was used as the vehicle control.

[5] = system: rat carotid artery injury model; test: Re-endothelization in rat carotid artery injury model (vWF staining); format: in vivo
Source text: (§1) White rats weighed 350 to 400 g were anesthetized with ketamine and xylene, and their surgery regions were shaved and sterilized with betadine. Skin on the neck region was cut by about 2 cm, and a rat carotid artery was found using a mosquito. A blood flow was prevented by hanging a thread on the carotid artery and an internal carotid artery, followed by tying an external carotid artery with a thread. A 2F forgarty catheter (Baxter, US) was inserted into a blood vessel between the external carotid artery and the carotid artery to wound a carotid artery region three times. Then, the wounded carotid artery region was tied with a thread to allow a blood flow through the carotid artery and the internal carotid artery and prevent hemorrhage between the carotid artery and the external carotid artery, and the surgery region was closed with stitches. Each of rear neck skins were cut by approximately 1 cm, and an osmotic pump containing a drug is inserted into the blood vessel and closed with stitches. After 1 week to observe the endothelial cells and 2 weeks to observe the restenosis, all blood was extracted from each subject rat using a perfusion, carotid arteries were taken from the rats and their tissue slides were made to observe their section of blood vessel. […]

[6] = system: rat carotid artery injury model; test: Restenosis inhibition in rat carotid artery injury model; format: in vivo
Source text: as §1

[7] = isoxazole derivative together with rapamycin, versus rapamycin alone (FIG. 6)

Compound	endothelial cell proliferation [1]	other results
O=C(NCCCSc1nnc[nH]1)c1cc(-c2cccs2)on1 [Derivative 69, 5-thiophen-2-yl-isoxazole-3-carboxylic acid [3-(4H-[1,2,4]triazol-3-yl-sulfanyl)-propyl]-amide]	inhibit or maintain the proliferation of the endothelial cells	–
O=C(NCCCn1cncn1)c1cc(-c2ccco2)on1 [Derivative 19, 5-furan-2-yl-isoxazole-3-carboxylic acid (3-[1,2,4]triazol-1-yl-propyl)-amide]	inhibit or maintain the proliferation of the endothelial cells	–
O=C(NCCn1ccnc1)c1cc(-c2ccco2)on1 [Derivative 4, 5-furan-2-yl-isoxazole-3-carboxylic acid (2-imidazol-1-yl-ethyl)-amide]	inhibit or maintain the proliferation of the endothelial cells	–
CO[C@H]1C[C@@H]2CC[C@@H](C)[C@@](O)(O2)C(=O)C(=O)N2CCCC[C@H]2C(=O)O[C@H]([C@H](C)C[C@@H]2CC[C@@H](O)[C@H](OC)C2)CC(=O)[C@H](C)/C=C(\C)[C@@H](O)[C@@H](OC)C(=O)[C@H](C)C[C@H](C)/C=C/C=C/C=C/1C [rapamycin, reference compound]	–	re-endothelization rate (healing %) (pig coronary stent model [2]; drug-containing PLGA stent, polymer-coated stent 80.2% (FIG. 15)): 67.9%; restenotic areas of blood vessels (pig coronary stent model [3]; stent with PLGA polymer and drug, after 28 days, negative control 2.74 mm^2 (FIG. 14)): 1.80 mm^2
O=C(NCCn1cncn1)c1cc(-c2ccc(F)cc2)on1 [Derivative 35, 5-(4-fluoro-phenyl)-isoxazole-3-carboxylic acid (2-[1,2,4]triazol-1-yl-ethyl)-amide]	inhibit or maintain the proliferation of the endothelial cells	–
O=C(NCCCn1cncn1)c1cc(-c2cccs2)on1 [Derivative 50, 5-thiophen-2-yl-isoxazole-3-carboxylic acid (3-[1,2,4]-triazol-1-yl-propyl)-amide]	inhibit or maintain the proliferation of the endothelial cells	–
O=C(NCCCn1cncn1)c1cc(-c2ccc(F)cc2)on1 [Derivative 31, 5-(4-fluoro-phenyl)-isoxazole-3-carboxylic acid (3-[1,2,4]triazol-1-yl-propyl)-amide]	inhibit or maintain the proliferation of the endothelial cells	–
O=C(NCCCn1ccnc1)c1cc(-c2ccccc2)on1 [Derivative 23, 5-phenyl-isoxazole-3-carboxylic acid (3-imidazol-1-yl-propyl)-amide]	inhibit or maintain the proliferation of the endothelial cells	–
O=C(NCCCn1cncn1)c1cc(-c2ccsc2)on1 [Derivative 62, 5-thiophen-3-yl-isoxazole-3-carboxylic acid (3-[1,2,4]-triazol-1-yl-propyl)-amide]	inhibit or maintain the proliferation of the endothelial cells	–
O=C(NCCc1ccncc1)c1cc(-c2ccco2)on1 [Derivative 5, 5-furan-2-yl-isoxazole-3-carboxylic acid (2-pyridin-4-yl-ethyl)-amide]	increases or maintains the proliferation of HUVEC	re-endothelization on the damaged artery surface (pig coronary stent model [2]; 4 weeks, stent with rapamycin plus derivative 5 (FIG. 15)): significantly recovered; cell number of vascular smooth muscle cells (VSMC) ([4]; drug alone, increasing concentration, two days (FIG. 5)): reduced; vascular smooth muscle cell proliferation, used together with rapamycin [4, 7]: inhibited more significantly; re-endothelization on damaged carotid artery surface ([5]; 200 μg/kg/day for two weeks, versus not administered (FIG. 12)): occurs more significantly; re-endothelization, together with rapamycin ([5]; compound together with rapamycin versus compound only (FIG. 13)): more significantly increased; lumen losses of blood vessel (pig coronary stent model [3]; stent with 180 μg rapamycin plus 45, 90 or 180 μg derivative 5, 28 days, versus rapamycin-treated group (FIG. 14)): further reduced; restenotic area of the blood vessel ([6]; 200 μg/kg/day for two weeks by osmotic pump, versus not administered (FIG. 11)): more significantly reduced in size; restenosis inhibition effect, together with rapamycin ([6]; compound together with rapamycin versus compound only (FIG. 11, FIG. 13)): more significant restenosis inhibition effect; endothelial cell proliferation, used together with paclitaxel ([1]; isoxazole derivative together with paclitaxel, versus paclitaxel alone (FIG. 7)): recovered; endothelial cell proliferation, used together with rapamycin [1, 7]: recovered
Cn1nnnc1SCCNC(=O)c1cc(-c2cccs2)on1 [Derivative 68, 5-thiophen-2-yl-isoxazole-3-carboxylic acid [2-(1-methyl-1H-tetrazol-5-yl-sulfanyl)-ethyl]-amide]	inhibit or maintain the proliferation of the endothelial cells	–
O=C(NCCCn1ccnc1)c1cc(-c2ccsc2)on1 [Derivative 63, 5-thiophen-3-yl-isoxazole-3-carboxylic acid (3-imidazol-1-yl-propyl)-amide]	inhibit or maintain the proliferation of the endothelial cells	–
CC(=O)O[C@H]1C(=O)[C@@]2(C)[C@H]([C@H](OC(=O)c3ccccc3)[C@]3(O)C[C@H](OC(=O)[C@H](O)[C@@H](NC(=O)c4ccccc4)c4ccccc4)C(C)=C1C3(C)C)[C@]1(OC(C)=O)CO[C@@H]1C[C@@H]2O [paclitaxel, reference compound]	inhibit the proliferation of HUVEC	–
Cn1cnnc1S(=O)(=O)CCNC(=O)c1cc(-c2ccco2)on1 [Derivative 70, 5-furan-2-yl-isoxazole-3-carboxylic acid [2-(4-methyl-4H-[1,2,4]triazol-3-yl-sulfonyl)-ethyl]-amide]	inhibit or maintain the proliferation of the endothelial cells	–
